Results published in EP3201178B1 (University of Hertfordshire Higher Education Corporation, priority 2014, dated 2016).

Assays:
dopamine D2 receptors = dopamine D2 receptors (Homo sapiens, UniProt P14416); assay: binding affinity for the D2 DA receptor; conditions: for affinity for dopamine D2 receptors: result in words
[1] = test system: ventral mesencephalic neurones; assay: calcein AM fluorescence viability assay against lactacystin; type: cell-based, rat; conditions: 5 µM lactacystin; for protection against lactacystin in calcein AM fluorescence assay: compound concentrations 0.1 to 1 µM; for neuroprotection against lactacystin in calcein AM fluorescence assay at higher concentrations: compound concentrations 10 to 100 µM; for viability of ventral mesencephalic neurones, calcein AM assay (Figure 6 legend): low to medium concentrations of compound
Excerpt: (§1) • Figure 1 illustrates Scheme 1, the synthetic route and chemical structures N-{4-[2-(4-aryl-piperazin-1-yl)-ethyl]-phenyl}-arylsulphonamides, N-{3-[2-(4-aryl-piperazin-1-yl)-ethyl]-phenyl}-arylsulphonamides and N-{2-[2-(4-aryl-piperazin-1-yl)-ethyl]-phenyl}-arylsulphonamides; • Figure 2 illustrates Scheme 2 the synthetic route and chemical structures of the N-{4-[2-(4-aryl-piperazin-1-yl)-methyl]-phenyl}-arylsulphonamides, N-{3-[2-(4-aryl-piperazin-1-yl)-methyl]-phenyl}-arylsulphonamides and N-{2-[2-(4-aryl-piperazin-1-yl)-methyl]-phenyl}-arylsulphonamides; • Figure 3 illustrates Table 1 illustrating the chemical structure and binding affinity of the some new arylpiperazine-sulphonamides for the D2 DA and 5-HT1A receptors; • Figure 4 illustrates the effect of compounds 1 and 2 on motor clinical scores; • Figure 5 illustrates the viability of rat ventral mesencephalic cells in culture following administration of proteasomal inhibitor lactacystin (5µM) using MTT assay. Compound 4h (4207) and 4f (4295) are protective against the effect of lactacystin in this model; and • Figure 6 illustrates the viability of ventral mesencephalic neurones using calcein AM assay.

[2] = test system: rat primary ventral mesencephalic neurones; assay: MTT viability assay, lactacystin cytotoxicity on primary ventral mesencephalic neurones; type: cell-based; conditions: lactacystin 5µM, rat ventral mesencephalic cells in culture
Excerpt: as §1

SH-SY5Y cells = conditions: Tovilovic et al., 2012; cited from earlier work
5-HT1a receptors = biological target: T1, 5-HT1a receptors (Homo sapiens, UniProt P08908); assay: binding affinity for the 5-HT1A receptor
T1 sequence (P08908 1-422): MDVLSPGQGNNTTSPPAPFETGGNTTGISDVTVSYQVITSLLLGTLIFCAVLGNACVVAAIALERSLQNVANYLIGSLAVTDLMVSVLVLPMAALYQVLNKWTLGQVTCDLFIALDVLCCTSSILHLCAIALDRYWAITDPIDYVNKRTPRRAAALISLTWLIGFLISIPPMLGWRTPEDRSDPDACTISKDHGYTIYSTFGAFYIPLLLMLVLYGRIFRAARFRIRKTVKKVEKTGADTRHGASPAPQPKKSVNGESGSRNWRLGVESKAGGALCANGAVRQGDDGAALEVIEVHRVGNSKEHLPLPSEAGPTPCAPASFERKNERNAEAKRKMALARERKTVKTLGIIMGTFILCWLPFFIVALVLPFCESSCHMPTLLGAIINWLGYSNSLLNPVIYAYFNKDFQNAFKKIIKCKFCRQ

dopamine D2 receptors, sequence (P14416 whole entry): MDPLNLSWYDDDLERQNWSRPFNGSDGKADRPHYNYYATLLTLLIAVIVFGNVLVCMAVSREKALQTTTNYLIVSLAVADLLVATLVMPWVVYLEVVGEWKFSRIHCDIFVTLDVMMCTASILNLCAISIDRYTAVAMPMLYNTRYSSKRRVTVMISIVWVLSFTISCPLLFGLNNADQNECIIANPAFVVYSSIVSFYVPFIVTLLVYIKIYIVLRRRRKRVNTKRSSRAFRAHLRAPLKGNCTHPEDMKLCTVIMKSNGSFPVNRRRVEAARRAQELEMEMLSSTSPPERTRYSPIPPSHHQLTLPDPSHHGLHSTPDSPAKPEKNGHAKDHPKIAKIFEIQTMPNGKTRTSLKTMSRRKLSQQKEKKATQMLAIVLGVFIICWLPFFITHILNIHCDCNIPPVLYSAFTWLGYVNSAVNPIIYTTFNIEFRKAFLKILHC

Compound | protection against lactacystin in calcein AM fluorescence assay [1] | neuroprotection against lactacystin in calcein AM fluorescence assay at higher concentrations [1] | viability of ventral mesencephalic neurones, calcein AM assay (Figure 6 legend) [1] | protection of dopaminergic neurons against lactacystin (cell viability, MTT assay) [2] | protection of dopaminergic neurons against lactacystin (cell viability, MTT assay) ([2]; hydrochloride) | affinity for dopamine D2 receptors (dopamine D2 receptors) | preventing mitochondrial damage and apoptosis induced by nitric oxide (NO) (SH-SY5Y cells) | further results
O=S(=O)(Nc1ccc(CCN2CCN(c3ccccc3)CC2)cc1)c1ccccn1 [Compound 4f, N-{4-[2-(4-phenyl-piperazin-1-yl)-ethyl]-phenyl}-2-pyridylsulphonamide] | afford protection | neuroprotection was reversed | reversed cell death | protective |  |  |  | Ki (dopamine D2 receptors): 4.43 nM; protection of dopaminergic neurons against lactacystin (cell viability, MTT assay) ([2]; listed as 4295): markedly protected
Cl.O=S(=O)(Nc1cccc(CCN2CCN(c3ccccc3)CC2)c1)c1cccnc1 [Compound 4208, N-{3-[2-(4-phenyl-piperazin-1-yl)-ethyl]-phenyl}-3-pyridylsulphonamide hydrochloride] |  |  |  |  | markedly protected |  |  | 
O=C(Nc1ccc(CCN2CCN(c3ccccc3)CC2)cc1)c1ccccn1 [Compound 1, N-{4-[2-(4-phenyl-piperazin-1-yl)ethyl]-phenyl}-picolinamide, reference compound] |  |  |  |  |  | moderate affinity | most active | 
O=C(Nc1cccc(CCN2CCN(c3ccccc3)CC2)c1)c1ccccn1 [Compound 2, N-{3-[2-(4-phenyl-piperazin-1-yl)ethyl]-phenyl}-picolinamide, reference compound] |  |  |  |  |  | moderate affinity | most active | 
Cl.O=S(=O)(Nc1cccc(CCN2CCN(c3ccccc3)CC2)c1)c1cccnc1 [Compound 4h, N-{3-[2-(4-phenyl-piperazin-1-yl)-ethyl]-phenyl}-3-pyridylsulphonamide hydrochloride] | afford protection | neuroprotection was reversed | reversed cell death |  | protective | little or no affinity |  | Ki (5-HT1a receptors): 6.88 nM; protection of dopaminergic neurons against lactacystin (cell viability, MTT assay) ([2]; listed as 4207, hydrochloride): most protection
O=S(=O)(Nc1cccc(CCN2CCN(c3ccccc3)CC2)c1)c1ccccn1 [Compound 4298] |  |  |  | markedly protected |  |  |  | 
